Laboratory results as given in ChEMBL document CHEMBL1158401, “Development of CoMFA and CoMSIA models of affinity and selectivity for indole ligands of cannabinoid CB1 and CB2 receptors” (Eur J Med Chem, 2009).

How the values were obtained:
[1] = Selectivity ratio of pKi for human cloned CB2 receptor to pKi for CB1 receptor in rat brain; assay type: tissue-based
[2] = Selectivity ratio of pKi for CB1 receptor in rat brain to pKi for human cloned CB2 receptor; assay type: tissue-based
[3] = molecular target: Cannabinoid receptor 2 (Homo sapiens, UniProt P34972); experiment: Displacement of [3H]CP-55940 from human cloned CB2 receptor by filtration assay
[4] = molecular target: Cannabinoid receptor 1 (Rattus norvegicus, UniProt P20272); experiment: Displacement of [3H]CP-55940 from CB1 receptor in rat brain by filtration assay; assay type: tissue-based
Cannabinoid receptor 1, sequence (P20272 whole entry): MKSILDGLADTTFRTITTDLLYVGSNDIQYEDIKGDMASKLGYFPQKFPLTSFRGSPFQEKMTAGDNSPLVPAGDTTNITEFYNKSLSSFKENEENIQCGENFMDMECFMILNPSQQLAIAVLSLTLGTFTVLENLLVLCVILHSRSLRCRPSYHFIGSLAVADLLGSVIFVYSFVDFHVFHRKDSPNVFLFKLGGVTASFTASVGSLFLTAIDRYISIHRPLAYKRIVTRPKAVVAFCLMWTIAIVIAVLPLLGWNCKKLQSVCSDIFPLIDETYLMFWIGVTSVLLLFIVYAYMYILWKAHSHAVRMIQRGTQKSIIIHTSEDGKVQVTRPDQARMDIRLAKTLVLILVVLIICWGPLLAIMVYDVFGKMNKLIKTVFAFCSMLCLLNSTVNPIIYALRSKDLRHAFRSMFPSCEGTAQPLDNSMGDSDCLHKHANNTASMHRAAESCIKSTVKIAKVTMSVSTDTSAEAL

Cannabinoid receptor 2, sequence (P34972 whole entry): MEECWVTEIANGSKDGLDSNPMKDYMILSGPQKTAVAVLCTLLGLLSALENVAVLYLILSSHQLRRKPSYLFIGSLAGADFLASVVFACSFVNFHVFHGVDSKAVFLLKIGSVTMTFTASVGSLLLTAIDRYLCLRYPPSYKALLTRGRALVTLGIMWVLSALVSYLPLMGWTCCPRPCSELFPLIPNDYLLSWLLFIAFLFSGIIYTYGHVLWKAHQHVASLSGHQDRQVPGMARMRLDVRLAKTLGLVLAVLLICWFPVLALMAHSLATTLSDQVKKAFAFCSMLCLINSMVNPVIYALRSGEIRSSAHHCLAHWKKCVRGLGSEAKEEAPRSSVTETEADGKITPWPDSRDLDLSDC

| Structure (SMILES) | Ratio pKi [1] | Ratio pKi [2] | Ki [3] [nM] | Ki [4] [nM] |
| --- | --- | --- | --- | --- |
| CCCCCn1c(C)c(C(=O)c2ccc(CC)c3ccccc23)c2ccccc21 | 1.06 | 0.941 | – | – |
| CCCCCn1cc(C(=O)Cc2cccc(OC)c2)c2ccccc21 | 0.907 | 1.1 | – | – |
| CCCCCn1c(C)c(C(=O)Cc2ccc(Cl)cc2)c2ccccc21 | 0.936 | 1.07 | – | – |
| CCCCCn1cc(C(=O)Cc2ccc(OC)cc2)c2ccccc21 | 1.06 | 0.94 | – | – |
| CCCn1cc(C(=O)c2cccc3cc(OC)ccc23)c2ccccc21 | 1.22 | 0.82 | – | – |
| CCCn1cc(C(=O)c2ccc(C)c3ccccc23)c2ccccc21 | 1.37 | 0.728 | – | – |
| CCCCCn1cc(C(=O)c2ccc(CC)c3ccccc23)c2ccccc21 | 0.981 | 1.02 | – | – |
| CCCCCn1cc(C(=O)Cc2ccccc2F)c2ccccc21 | 0.969 | 1.03 | – | – |
| CCCc1ccc(C(=O)c2cn(CCC)c3ccccc23)c2ccccc12 | 1.06 | 0.946 | – | – |
| CCCn1cc(C(=O)c2cccc3ccc(CC)cc23)c2ccccc21 | 1.07 | 0.936 | – | – |
| CCCCCn1cc(C(=O)Cc2ccccc2Br)c2ccccc21 | 0.953 | 1.05 | – | – |
| CCCn1cc(C(=O)c2cccc3ccc(OC)cc23)c2ccccc21 | 1.07 | 0.936 | – | – |
| CCCCCn1c(C)c(C(=O)c2ccc(CCCC)c3ccccc23)c2ccccc21 | 1.11 | 0.901 | – | – |
| CCCCc1ccc(C(=O)c2cn(CCC)c3ccccc23)c2ccccc12 | 1.13 | 0.888 | – | – |
| CCCn1cc(C(=O)c2ccc(OCC)c3ccccc23)c2ccccc21 | 1.07 | 0.934 | – | – |
| CCCCCn1c(C)c(C(=O)Cc2cccc(F)c2)c2ccccc21 | 1.06 | 0.945 | – | – |
| CCCCCn1cc(C(=O)c2ccc(OC)c3ccccc23)c2ccccc21 | 0.886 | 1.13 | 12.4 | 1.2 |
| CCCc1ccc(C(=O)c2c(C)n(CCC)c3ccccc23)c2ccccc12 | 1.09 | 0.919 | – | – |
| CCCn1c(C)c(C(=O)c2ccc(OC)c3ccccc23)c2ccccc21 | 1.11 | 0.901 | 97.1 | 476 |
| CCCCCn1c(C)c(C(=O)Cc2ccccc2OC)c2ccccc21 | 0.932 | 1.07 | – | – |
| CCCCCn1c(C)c(C(=O)Cc2cccc(Cl)c2)c2ccccc21 | 0.989 | 1.01 | – | – |
| CCCn1c(C)c(C(=O)c2ccc(C)c3ccccc23)c2ccccc21 | 1.14 | 0.88 | – | – |
| CCCCCn1cc(C(=O)Cc2ccccc2)c2ccccc21 | 0.964 | 1.04 | – | – |
| CCCCCn1cc(C(=O)Cc2ccc(Cl)cc2)c2ccccc21 | 0.983 | 1.02 | – | – |

| Structure (SMILES) | Ratio pKi [1] | Ratio pKi [2] | Ki [3] [nM] | Ki [4] [nM] |
| --- | --- | --- | --- | --- |
| CCCCCn1c(C)c(C(=O)Cc2ccccc2Cl)c2ccccc21 | 0.963 | 1.04 | – | – |
| CCCn1cc(C(=O)c2cccc3ccc(C)cc23)c2ccccc21 | 1.04 | 0.956 | – | – |
| CCCn1cc(C(=O)c2c(OC)ccc3ccccc23)c2ccccc21 | 1.31 | 0.764 | – | – |
| CCCCCn1cc(C(=O)Cc2ccc(F)cc2)c2ccccc21 | 1.01 | 0.99 | – | – |
| CCCCCn1cc(C(=O)c2ccc(CCCC)c3ccccc23)c2ccccc21 | 1.04 | 0.964 | – | – |
| CCCCCn1cc(C(=O)c2ccc(OCC)c3ccccc23)c2ccccc21 | 0.957 | 1.04 | – | – |
| CCCCCn1c(C)c(C(=O)c2ccc(OCC)c3ccccc23)c2ccccc21 | 1.01 | 0.991 | – | – |
| CCCCCn1cc(C(=O)c2ccc(C)c3ccccc23)c2ccccc21 | 0.973 | 1.03 | – | 0.69 |
| CCCCCn1c(C)c(C(=O)Cc2ccccc2Br)c2ccccc21 | 0.963 | 1.04 | – | – |
| CCCn1cc(C(=O)c2ccc(CC)c3ccccc23)c2ccccc21 | 1.07 | 0.935 | – | – |
| CCCn1cc(C(=O)c2cccc3ccccc23)c2ccccc21 | 1.13 | 0.883 | 170 | 1050 |
| CCCCCn1c(C)c(C(=O)Cc2ccc(OC)cc2)c2ccccc21 | 1.07 | 0.933 | – | – |
| CCCCCn1c(C)c(C(=O)c2ccc(C)c3ccccc23)c2ccccc21 | 1.1 | 0.909 | – | 5 |
| CCCn1c(C)c(C(=O)c2cccc3ccc(OC)cc23)c2ccccc21 | 1.09 | 0.913 | – | – |
| CCCCCn1c(C)c(C(=O)c2cccc3ccc(CC)cc23)c2ccccc21 | 1.09 | 0.915 | – | – |
| CCCCCn1cc(C(=O)c2cccc3ccc(OC)cc23)c2ccccc21 | 0.997 | 1 | – | – |
| CCCCCn1c(C)c(C(=O)Cc2ccccc2)c2ccccc21 | 0.976 | 1.02 | – | – |
| CCCCCn1c(C)c(C(=O)c2cccc3cc(OC)ccc23)c2ccccc21 | 1.21 | 0.83 | – | – |
| CCCCCn1cc(C(=O)Cc2ccc(Br)cc2)c2ccccc21 | – | 0.969 | – | – |
| CCCCCn1c(C)c(C(=O)c2cccc3ccccc23)c2ccccc21 | 1.06 | 0.94 | 2.9 | 9.51 |
| CCCCCn1c(C)c(C(=O)c2ccc(CCC)c3ccccc23)c2ccccc21 | 1.04 | 0.965 | – | – |
| CCCn1c(C)c(C(=O)c2ccc(OCC)c3ccccc23)c2ccccc21 | 1.09 | 0.919 | – | – |
| CCCCCn1c(C)c(C(=O)c2c(OC)ccc3ccccc23)c2ccccc21 | 1.26 | 0.792 | – | – |
| CCCCCn1cc(C(=O)Cc2ccccc2Cl)c2ccccc21 | 1.01 | 0.993 | – | – |

| Structure (SMILES) | Ratio pKi [1] | Ratio pKi [2] | Ki [3] [nM] | Ki [4] [nM] |
| --- | --- | --- | --- | --- |
| CCCCCn1cc(C(=O)Cc2ccccc2OC)c2ccccc21 | 0.94 | 1.06 | – | – |
| CCCn1c(C)c(C(=O)c2ccc(CC)c3ccccc23)c2ccccc21 | 1.11 | 0.903 | – | – |
| CCCCCn1cc(C(=O)c2cccc3ccc(CC)cc23)c2ccccc21 | 1.04 | 0.959 | – | – |
| CCCCc1ccc(C(=O)c2c(C)n(CCC)c3ccccc23)c2ccccc12 | 1.07 | 0.935 | – | – |
| CCCCCn1cc(C(=O)c2ccc(CCC)c3ccccc23)c2ccccc21 | 0.975 | 1.02 | – | – |
| CCCn1c(C)c(C(=O)c2cccc3ccc(CC)cc23)c2ccccc21 | 1.13 | 0.887 | – | – |
| CCCCCn1c(C)c(C(=O)c2cccc3ccc(OC)cc23)c2ccccc21 | 1.09 | 0.92 | – | – |
| CCCCCn1cc(C(=O)c2cccc3cc(OC)ccc23)c2ccccc21 | 1.19 | 0.843 | – | – |
| CCCCCn1cc(C(=O)Cc2cccc(F)c2)c2ccccc21 | 0.985 | 1.01 | – | – |
| CCCCCn1cc(C(=O)Cc2ccc(C)cc2)c2ccccc21 | 0.925 | 1.08 | – | – |
| CCCCCn1c(C)c(C(=O)Cc2ccccc2C)c2ccccc21 | 1.01 | 0.989 | – | – |
| CCCn1cc(C(=O)c2ccc(OC)c3ccccc23)c2ccccc21 | 1.04 | 0.961 | 32 | 63.1 |
| CCCCCn1c(C)c(C(=O)Cc2cccc(OC)c2)c2ccccc21 | 0.981 | 1.02 | – | – |
| CCCCCn1cc(C(=O)Cc2cccc(Cl)c2)c2ccccc21 | 0.939 | 1.06 | – | – |
| CCCCCn1cc(C(=O)c2cccc3ccccc23)c2ccccc21 | 1.06 | 0.942 | 2.9 | 9.02 |
| CCCCCn1c(C)c(C(=O)Cc2ccccc2F)c2ccccc21 | 0.96 | 1.04 | – | – |
| CCCCCn1c(C)c(C(=O)c2cccc3ccc(C)cc23)c2ccccc21 | 1.17 | 0.856 | 0.49 | 10.7 |
| CCCCCn1c(C)c(C(=O)c2ccc(OC)c3ccccc23)c2ccccc21 | 1.04 | 0.957 | 1.9 | 4.51 |
| CCCn1c(C)c(C(=O)c2cccc3ccc(C)cc23)c2ccccc21 | 1.21 | 0.829 | 16 | 344 |
| CCCCCn1cc(C(=O)Cc2ccccc2C)c2ccccc21 | 0.906 | 1.1 | – | – |
| CCCCCn1c(C)c(C(=O)Cc2ccc(C)cc2)c2ccccc21 | 0.957 | 1.04 | – | – |
| CCCCCn1cc(C(=O)c2c(OC)ccc3ccccc23)c2ccccc21 | 1.27 | 0.788 | – | – |
